The results in this text go back to US20230263808A1 (UNIVERSITY OF FLORIDA RESEARCH FOUNDATION, INCORPORATED, priority 2020, published 2023).

“Also recorded” adds a separate entry of the source.

In data set [1] the test system is IL-1β-induced IL-6 secretion by A549 lung cells. In words: IL-1β-induced IL-6 secretion by A549 lung cells (AlphaLISA). The data set is classed as cell-based. Particulars: 10 μM. The text has this: (§1) A) Correlation of correlation (COC) plots where each point represents the Pearson correlation coefficient, r, between a distinct gene expression or GR-peptide interaction assay with assays indicated on the x and y axes. B) The effects of all tested compounds on IL-1β-induced secretion of IL-6 (y axes) and GC-regulated phenotypes indicated on the x axes. C) The effects of all tested compounds on IL-1β-induced secretion of IL-6 (y axis) and bone mineralization (x axis). D) IL-1β-induced IL-6 production by A549 cells treated with 10 μM of the indicated compounds was compared by AlphaLISA. E-H) Myoblasts were assayed as described in FIG. 8. I) Representative myoblasts imaged during the mitochondrial potential assay. J) Plasma TNFα levels of C57BL/6 male mice treated pretreated with the indicated ligands. K) Changes in lean mass of mice in panel J were determined by whole-body NMR after an additional 18 h LPS treatment. Data shown are mean+SEM.
In order to understand whether effects on skeletal muscle could be dissociated from anti-inflammatory effects of the ligands, we profiled the compounds for suppression of IL1β-induced IL-6 secretion by A549 lung cells. Examining the correlations between assays can be used to identify dissociated assays that selectively correlate with a given phenotype, predicting discovery of dissociated ligands. […] We call this a correlation of correlations (COC) plot. […] These include recruitment of NCOA2 and NCOA3 peptides, coactivators that we and others have shown to be required for GC-dependent suppression of inflammation in different cell types (FIG. 11, A). However, for the mitochondrial assay and IL-6, there are dissociated assays shown by points that are far out from the regression line in the COC plot (FIG. 7, A). For example, interaction of CHD9 with GR predicted mitochondrial activity but not Glut4 translocation (FIG. 11, B), while interaction with the CENPR peptide selectively predicted effects on Glut4 translocation (FIG. 11, C). […] Assays that correlated with effects of the ligands on GR nuclear translocation were also highly correlated with Glut4 translocation and suppression of IL-6 secretion (FIG. 11, F). Therefore, the COC curves provide a way to identify common signaling mechanisms between different GR target tissues and signaling pathways.
Background: In Alpha technology, singlet oxygen from a donor bead excites a nearby acceptor bead.

The subject of data set [2] is primary human osteoblasts. Briefly: Osteoblast mineralization (Alizarin Red S) from mesenchymal stem cells. The data set is classed as cell-based. The protocol:
A) Each dot represents the effects of a compound in the indicated assays at 10 uM. N=4-6 from two different experiments. […] C) SR11466 is efficacious at inhibiting IL-6 secretion from A549 cells. C-E). […] D) Mitochondrial activity was measured in myoblasts using high content imaging with mitotracker dye after 24 treatment. New amino acid incorporation was measured with LICOR in cell western for puromycin (SunSet assay). E) top, MMTV-luciferase reporter data. N=3, mean+SEM. Bottom, Mineralization of primary human OBs was assayed after two weeks of differentiation from MSC and two weeks of mineralization. N=4, mean+SEM, 2-way ANOVA.
As a further test for dissociation, the compounds were profiled in primary human osteoblasts for effects on osteogenesis during 4 weeks of differentiation from mesenchymal stem cells. Specifically, osteoblast mineralization was examined as follows. Human mesenchymal stem cells (MSCs) at passage 2 were maintained in growth media consisted of alpha-MEM (Life Technologies, 32561-037) supplemented with 17% FBS (Sigma-Aldrich, 12303C), 2 mM L-glutarnine (Life Technologies, 25030-081), and 100 units/mL penicillin/streptomycin (Life Technologies, 15140-122). Effect of glucocorticoid receptor modulators on osteogenic differentiation of MSCs was quantified using Alizarin Red S (Sigma-Aldrich, A5533) staining. Briefly, human MSCs were seeded in the middle 8 wells of 48-well plates at plating density of 10,000 cells per well. PBS (Life Technologies, 10010-031) was added to surrounding wells to reduce evaporation of media in the middle wells during prolonged incubation. 24 h later, growth media was replaced by osteogenic induction media (OIM) consisted of low-glucose DMEM (Life Technologies, 10567-014) supplemented with 10% FBS (Sigma-Aldrich. 12303C), 50 μg/ml L-ascorbic-2-phosphate (Sigma-Aldrich, A8960), 10 mM β-glyceroiphosphate (Sigma-Aldrich, G9891), and glucocorticoid modulators. OIM containing test compounds was replaced every week. At the end of 2 weeks, monolayers were washed with PBS (Life Technologies, 10010-031), incubated in Richard-Allan Scientific™ Neutral Buffered Formalin (10%) (Thermo Scientific, 5725) for 2 h at room temperature, washed with deionized water and stained with Alizarin Red S for 30 min at room temperature. Monolayers were then rinsed 3×with deionized water until clear, stain was then extracted with 10% (w/v) cetylpyridinium chloride (Sigma-Aldrich, C0732) in 10 mM sodium phosphate (Sigma, S5011 and S5136), pH 7.0 for 15 min at room temperature and the amount of extracted dye quantified spectroscopically at 562 nm. Spectroscopic analysis performed using a synergy™ NEO HTS Multi-Mode Microplate Reader (BioTek Instruments, Inc.).

In data set [3] the test system is LPS-induced TNFα. In words: LPS-induced plasma TNFα levels in mice. The data set is classed as in vivo, C57BL/6 male mice. Particulars: mice pretreated with ligand.
Description: as §1

Data set [4] is described as follows: Loss of lean mass after a larger dose of LPS (whole-body NMR). Format: in vivo, C57BL/6 male mice. Particulars: additional 18 h LPS treatment.
Description: as §1

The subject of data set [5] is GILZ mRNA. Briefly: GILZ gene expression. The data set is classed as cell-based.
The nature of data set [6]: Pharmacokinetics for in vivo dosing.

With `CC#CC1(O)CCC2C3CCc4cc(C(=O)Nc5cnccc5C)ccc4C3C(O)CC21C` (stereo not shown) [SR15421], the “inhibition of IL-1β-induced IL-6 secretion (anti-inflammatory)” value (shortened to “inhibition”) in data set [1] is reported as “anti-inflammatory”. Further, in data set [2], the “effect on mineralization (bone)” value is on record as “completely bone sparing”.

On to `CC#CC1(O)CCC2C3CCc4cc(C(=O)Nc5cccnc5C)ccc4C3C(OCc3ccccc3Cl)CC21C` (stereo not shown) [SR16024], for which, in data set [1], the “inhibition” value is given as “partially inhibited; also recorded: weakly anti-inflammatory”. Also, the “LPS-induced TNFα levels in the blood” value in data set [3] is “not inhibitory”. Besides, the “loss of lean mass following a larger dose of LPS” value in data set [4] is reported as “protective”. In data set [2], the “effect on mineralization (bone)” value is listed as “bone sparing”. The GILZ gene expression entry in data set [5] is “not activating GILZ”. Further, the “pharmacokinetics for in vivo dosing” value in data set [6] was “favorable pharmacokinetics”.

On to `CC#CC1(O)CCC2C3CCc4cc(C(=O)Nc5cccnc5C)ccc4C3C(OCc3ccc(Cl)cc3)CC21C` (stereo not shown) [SR16025], for which the “inhibition” value in data set [1] is listed as “weakly anti-inflammatory”. In addition, in data set [2], the “effect on mineralization (bone)” value is reported as “more than quadrupled; also recorded: quadruple”. The GILZ gene expression result in data set [5] is reported as “not activating GILZ”.

Consider `C=CCOC1CC2(C)C(CCC2(O)C#CC)C2CCc3cc(C(=O)Nc4cccnc4C)ccc3C12` (stereo not shown) [SR11466], for which the “inhibition” value in data set [1] is on record as “as efficiently as Dex; also recorded: fully inhibiting IL-6 secretion; also recorded: efficacious; also recorded: inhibited IL-6 secretion as efficiently as dexamethasone”. Further, the “LPS-induced TNFα levels in the blood” value in data set [3] is “strongly suppressed”. For the same molecule, in data set [4], the “loss of lean mass following a larger dose of LPS” value is on record as “significantly better than Dex”. For the same molecule, the “effect on mineralization (bone)” value in data set [2] is on record as “modest improvements on mineralization”. The “pharmacokinetics for in vivo dosing” value in data set [6] is “favorable pharmacokinetics”.
